Measured values published in patent US8993542B2, “Methods of treating viral infections” (priority 2008, dated 2015).

Columns and labels:
HIV-1IIIB [1] = experiment: Two-drug combination antiviral assay in CEM cells (CPE), MacSynergy II; type: cell-based; settings: for Antagonism Volume, Result 1 / Antagonism Volume, Result 2 / Antagonism Volume, Result 3 / Mean Antagonism Volume (n = 3) / Mean Synergy Volume (n = 3) / Synergy Volume, Result 1 / Synergy Volume, Result 2 / Synergy Volume, Result 3: in combination with CMX157, CEM-SS cells, 95% confidence; for Interpretation of Antiviral Results (MacSynergy): two-drug combination (with CMX157; control d4T/RBV), CEM-SS cells
HIV-1IIIB [2] = experiment: TCID50 determination of drug-treated HIV-1IIIB; type: cell-based; set-up: TCID50, XTT Endpoint / TCID50, RT Endpoint / TCID50, P24 Endpoint: unit not given here
[3] = virus treated 15 minutes with 0.039 nM drug
[4] = virus treated 15 minutes with 0.125 nM drug
[5] = virus treated 15 minutes with 0.39 nM drug
[6] = virus treated 15 minutes with 1.25 nM drug
[7] = virus treated 15 minutes with 3.9 nM drug
[8] = virus treated 15 minutes with 12.5 nM drug
[9] = virus treated 15 minutes with 39.1 nM drug
[10] = virus treated 15 minutes with 125 nM drug

SMILES: O=C1Nc2ccc(Cl)cc2C(C#CC2CC2)(C(F)(F)F)O1 (stereo not shown) [Efavirenz (EFV), 6-chloro-4-cyclopropylethynyl-4-trifluoromethyl-1,4-dihydro-2H3,1-benzoxazin-2-one]
- Antagonism Volume, Result 1 (HIV-1IIIB [1]): 0 nM^2 %, μM^2 % or nMμM %
- Antagonism Volume, Result 2 (HIV-1IIIB [1]): 0 nM^2 %, μM^2 % or nMμM %
- Antagonism Volume, Result 3 (HIV-1IIIB [1]): 0 nM^2 %, μM^2 % or nMμM %
- Mean Antagonism Volume (n = 3) (HIV-1IIIB [1]): 0 nM^2 %, μM^2 % or nMμM %
- Mean Synergy Volume (n = 3) (HIV-1IIIB [1]): 69.8 nM^2 %, μM^2 % or nMμM %
- Synergy Volume, Result 1 (HIV-1IIIB [1]): 85.7 nM^2 %, μM^2 % or nMμM %
- Synergy Volume, Result 2 (HIV-1IIIB [1]): 80.6 nM^2 %, μM^2 % or nMμM %
- Synergy Volume, Result 3 (HIV-1IIIB [1]): 43.2 nM^2 %, μM^2 % or nMμM %
- Interpretation of Antiviral Results (MacSynergy) (HIV-1IIIB [1]): slightly synergistic

SMILES: Cc1cc(C#N)cc(C)c1Oc1nc(Nc2ccc(C#N)cc2)nc(N)c1Br [Etravirine (ETV), etravirine]
- Antagonism Volume, Result 1 (HIV-1IIIB [1]): −0.75 nM^2 %, μM^2 % or nMμM %
- Antagonism Volume, Result 2 (HIV-1IIIB [1]): 0 nM^2 %, μM^2 % or nMμM %
- Antagonism Volume, Result 3 (HIV-1IIIB [1]): −0.87 nM^2 %, μM^2 % or nMμM %
- Mean Antagonism Volume (n = 3) (HIV-1IIIB [1]): −0.29 nM^2 %, μM^2 % or nMμM %
- Mean Synergy Volume (n = 3) (HIV-1IIIB [1]): 69.0 nM^2 %, μM^2 % or nMμM %
- Synergy Volume, Result 1 (HIV-1IIIB [1]): 34.9 nM^2 %, μM^2 % or nMμM %
- Synergy Volume, Result 2 (HIV-1IIIB [1]): 106 nM^2 %, μM^2 % or nMμM %
- Synergy Volume, Result 3 (HIV-1IIIB [1]): 67.4 nM^2 %, μM^2 % or nMμM %
- Interpretation of Antiviral Results (MacSynergy) (HIV-1IIIB [1]): slightly synergistic

SMILES: CCCCCCCCCCCCCCCCOCCCOP(=O)(O)OCCOCn1cnc2c(=O)[nH]c(N)nc21 [HDP-ACV]
- effect on infectious virus (HIV-1IIIB [2]; 15 minutes, 0.039 to 125 nM): no effect
- Fold Decrease From VC, P24 Endpoint (HIV-1IIIB [2]; [3]): (0) Fold
- Fold Decrease From VC, RT Endpoint (HIV-1IIIB [2]; [3]): (1.2) Fold
- Fold Decrease From VC, XTT Endpoint (HIV-1IIIB [2]; [3]): (0) Fold
- TCID50, P24 Endpoint (HIV-1IIIB [2]; [3]): 30411
- TCID50, RT Endpoint (HIV-1IIIB [2]; [3]): 132749
- TCID50, XTT Endpoint (HIV-1IIIB [2]; [3]): 18115
- Fold Decrease From VC, P24 Endpoint (HIV-1IIIB [2]; [4]): (0) Fold
- Fold Decrease From VC, RT Endpoint (HIV-1IIIB [2]; [4]): (1.6) Fold
- Fold Decrease From VC, XTT Endpoint (HIV-1IIIB [2]; [4]): (1.1) Fold
- TCID50, P24 Endpoint (HIV-1IIIB [2]; [4]): 36277
- TCID50, RT Endpoint (HIV-1IIIB [2]; [4]): 102336
- TCID50, XTT Endpoint (HIV-1IIIB [2]; [4]): 16145
- Fold Decrease From VC, P24 Endpoint (HIV-1IIIB [2]; [5]): (0) Fold
- Fold Decrease From VC, RT Endpoint (HIV-1IIIB [2]; [5]): (1.1) Fold
- Fold Decrease From VC, XTT Endpoint (HIV-1IIIB [2]; [5]): (0) Fold
- TCID50, P24 Endpoint (HIV-1IIIB [2]; [5]): 30411
- TCID50, RT Endpoint (HIV-1IIIB [2]; [5]): 144887
- TCID50, XTT Endpoint (HIV-1IIIB [2]; [5]): 20325
- Fold Decrease From VC, P24 Endpoint (HIV-1IIIB [2]; [6]): (1.4) Fold
- Fold Decrease From VC, RT Endpoint (HIV-1IIIB [2]; [6]): (1.6) Fold
- Fold Decrease From VC, XTT Endpoint (HIV-1IIIB [2]; [6]): (1.1) Fold
- TCID50, P24 Endpoint (HIV-1IIIB [2]; [6]): 21529
- TCID50, RT Endpoint (HIV-1IIIB [2]; [6]): 102336
- TCID50, XTT Endpoint (HIV-1IIIB [2]; [6]): 16145
- Fold Decrease From VC, P24 Endpoint (HIV-1IIIB [2]; [7]): (0) Fold
- Fold Decrease From VC, RT Endpoint (HIV-1IIIB [2]; [7]): (1.6) Fold
- Fold Decrease From VC, XTT Endpoint (HIV-1IIIB [2]; [7]): (0) Fold
- TCID50, P24 Endpoint (HIV-1IIIB [2]; [7]): 30411
- TCID50, RT Endpoint (HIV-1IIIB [2]; [7]): 102336
- TCID50, XTT Endpoint (HIV-1IIIB [2]; [7]): 20325
- Fold Decrease From VC, P24 Endpoint (HIV-1IIIB [2]; [8]): (0) Fold
- Fold Decrease From VC, RT Endpoint (HIV-1IIIB [2]; [8]): (1.1) Fold
- Fold Decrease From VC, XTT Endpoint (HIV-1IIIB [2]; [8]): (0) Fold
- TCID50, P24 Endpoint (HIV-1IIIB [2]; [8]): 36227
- TCID50, RT Endpoint (HIV-1IIIB [2]; [8]): 144887
- TCID50, XTT Endpoint (HIV-1IIIB [2]; [8]): 18115
- Fold Decrease From VC, P24 Endpoint (HIV-1IIIB [2]; [9]): (0) Fold
- Fold Decrease From VC, RT Endpoint (HIV-1IIIB [2]; [9]): (0) Fold
- Fold Decrease From VC, XTT Endpoint (HIV-1IIIB [2]; [9]): (1.1) Fold
- TCID50, P24 Endpoint (HIV-1IIIB [2]; [9]): 30411
- TCID50, RT Endpoint (HIV-1IIIB [2]; [9]): 204659
- TCID50, XTT Endpoint (HIV-1IIIB [2]; [9]): 16145
- Fold Decrease From VC, P24 Endpoint (HIV-1IIIB [2]; [10]): (1.4) Fold
- Fold Decrease From VC, RT Endpoint (HIV-1IIIB [2]; [10]): (0) Fold
- Fold Decrease From VC, XTT Endpoint (HIV-1IIIB [2]; [10]): (0) Fold
- TCID50, P24 Endpoint (HIV-1IIIB [2]; [10]): 21529
- TCID50, RT Endpoint (HIV-1IIIB [2]; [10]): 162566
- TCID50, XTT Endpoint (HIV-1IIIB [2]; [10]): 18115

SMILES: CC(C)(C)NC(=O)[C@@H]1CN(Cc2cccnc2)CCN1C[C@@H](O)C[C@@H](Cc1ccccc1)C(=O)N[C@H]1c2ccccc2C[C@H]1O [Indinavir (IDV), indinavir]
- Antagonism Volume, Result 1 (HIV-1IIIB [1]): −0.56 nM^2 %, μM^2 % or nMμM %
- Antagonism Volume, Result 2 (HIV-1IIIB [1]): 0 nM^2 %, μM^2 % or nMμM %
- Antagonism Volume, Result 3 (HIV-1IIIB [1]): 0 nM^2 %, μM^2 % or nMμM %
- Mean Antagonism Volume (n = 3) (HIV-1IIIB [1]): −0.19 nM^2 %, μM^2 % or nMμM %
- Mean Synergy Volume (n = 3) (HIV-1IIIB [1]): 53.0 nM^2 %, μM^2 % or nMμM %
- Synergy Volume, Result 1 (HIV-1IIIB [1]): 78.7 nM^2 %, μM^2 % or nMμM %
- Synergy Volume, Result 2 (HIV-1IIIB [1]): 62.7 nM^2 %, μM^2 % or nMμM %
- Synergy Volume, Result 3 (HIV-1IIIB [1]): 17.6 nM^2 %, μM^2 % or nMμM %
- Interpretation of Antiviral Results (MacSynergy) (HIV-1IIIB [1]): slightly synergistic

SMILES: Cc1cccc(C)c1OCC(=O)N[C@@H](Cc1ccccc1)[C@@H](O)C[C@H](Cc1ccccc1)NC(=O)[C@H](C(C)C)N1CCCNC1=O [Lopinavir (LPV), lopinavir]
- Antagonism Volume, Result 1 (HIV-1IIIB [1]): −0.31 nM^2 %, μM^2 % or nMμM %
- Antagonism Volume, Result 2 (HIV-1IIIB [1]): 0 nM^2 %, μM^2 % or nMμM %
- Antagonism Volume, Result 3 (HIV-1IIIB [1]): −0.12 nM^2 %, μM^2 % or nMμM %
- Mean Antagonism Volume (n = 3) (HIV-1IIIB [1]): −0.14 nM^2 %, μM^2 % or nMμM %
- Mean Synergy Volume (n = 3) (HIV-1IIIB [1]): 55.6 nM^2 %, μM^2 % or nMμM %
- Synergy Volume, Result 1 (HIV-1IIIB [1]): 78.8 nM^2 %, μM^2 % or nMμM %
- Synergy Volume, Result 2 (HIV-1IIIB [1]): 28.3 nM^2 %, μM^2 % or nMμM %
- Synergy Volume, Result 3 (HIV-1IIIB [1]): 59.8 nM^2 %, μM^2 % or nMμM %
- Interpretation of Antiviral Results (MacSynergy) (HIV-1IIIB [1]): slightly synergistic
